From paper PMC4060991, “The Human Orphan Nuclear Receptor Tailless (TLX, NR2E1) Is Druggable” (PLoS ONE, 2014)

What was measured:
GAL4 DBD vector = assay: Luciferase assay in HeLa cells transfected with empty GAL4 DBD vector (absence of TLX); format: cell-based, human; conditions: different concentrations, 16 h
Description: HeLa cells were maintained in D-MEM High Glucose (Hyclone) supplemented with 10% charcoal:dextran stripped FBS (Hyclone) and 1x Pen/Strep antibiotics (Life Technologies). Transient transfections were carried out in batches on 100,000 cells seeded into 12-well tissue culture plates. The co-transfections were performed using the TransFectin Lipid reagent (Bio-Rad) with approximately 10 ng/well of Gal4 DBD (gift from Phuong Nguyen, Fletterick Laboratory, UCSF) or GAL4-TLX LBD, 10 ng/well of renilla luciferase gene (Promega) for internal control and 200 ng/well of pGL4.35 reporter gene (containing an upstream Gal4 Upstream Activator Sequence and the luciferase gene, Promega). Approximately, 3 h after transfections, cells were treated with compounds of interest at different concentrations, or solvent (DMSO, 0.1%) in DMEM containing no fetal bovine serum or antibiotics. After a 16-h incubation, luciferase activities were assessed using Dual Luciferase assay reagent (Promega). Luciferase activities were calculated by normalizing firefly luciferase to renilla luciferase signal. […] Cells transfected with Gal4 DBD vector served as a control for TLX independent effects.

human LXRβ LBD = molecular target: T1, human LXRβ LBD (Homo sapiens, UniProt P55055); assay: DSF on purified LXRβ LBD; format: binding; conditions: compound 500 µM; unliganded Tm ∼39°C
T1 construct: human LXRβ LBD (Liver X Receptor beta, a.a. 226–460) was expressed; His6 followed by TEV protease cleavage site (N); made in house; host or cells: E. coli BL21 (DE3) star
T1 sequence (P55055 226-460): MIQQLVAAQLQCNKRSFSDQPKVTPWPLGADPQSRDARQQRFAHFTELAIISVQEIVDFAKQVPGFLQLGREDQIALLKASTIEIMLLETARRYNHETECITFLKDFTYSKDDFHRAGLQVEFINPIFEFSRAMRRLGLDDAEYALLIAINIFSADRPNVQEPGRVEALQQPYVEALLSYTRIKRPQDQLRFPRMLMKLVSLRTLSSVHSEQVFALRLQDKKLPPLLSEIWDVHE
Description: (§1) Protein stability was assessed with DSF in absence or presence of test compounds in a LightCycler 480 II qRT-PCR Detection System (Roche) in 384-well format. Sypro-Orange dye (Life Technologies) was used to monitor fluorescence, with filters for fluorescence excitation at 465 nm and for fluorescence emission at 610 nm. […] Tested sample mixtures were heated from 25°C to 96°C at a rate of 0.05°C/sec with 11 acquisitions per °C. Each compound was tested in duplicates. The melting temperature (Tm) for each sample was deduced by the ThermoQ Analytical software (HMRI) from the first derivative of the corresponding denaturation curve generated by the LightCycler 480 software. The same protocol was applied to investigate the stability of purified ERβ and LXRβ LBDs in presence or absence of the compounds. The optimal final concentrations for these experiments were 0.02 mg/mL for ERβ LBD and 0.20 mg/mL for LXRβ LBD. All DSF-based analyses were performed using freshly purified protein.

HeLa cells = assay: Toxicity observed in transfection experiments; format: cell-based, human; conditions: tested at different concentrations
Description: HeLa cells were maintained in D-MEM High Glucose (Hyclone) supplemented with 10% charcoal:dextran stripped FBS (Hyclone) and 1x Pen/Strep antibiotics (Life Technologies). Transient transfections were carried out in batches on 100,000 cells seeded into 12-well tissue culture plates. The co-transfections were performed using the TransFectin Lipid reagent (Bio-Rad) with approximately 10 ng/well of Gal4 DBD (gift from Phuong Nguyen, Fletterick Laboratory, UCSF) or GAL4-TLX LBD, 10 ng/well of renilla luciferase gene (Promega) for internal control and 200 ng/well of pGL4.35 reporter gene (containing an upstream Gal4 Upstream Activator Sequence and the luciferase gene, Promega). Approximately, 3 h after transfections, cells were treated with compounds of interest at different concentrations, or solvent (DMSO, 0.1%) in DMEM containing no fetal bovine serum or antibiotics. After a 16-h incubation, luciferase activities were assessed using Dual Luciferase assay reagent (Promega). Luciferase activities were calculated by normalizing firefly luciferase to renilla luciferase signal. Normalized luciferase activities were then represented relative to control (DMSO-treated cells). Cells transfected with Gal4 DBD vector served as a control for TLX independent effects.

ERβ LBD [1] = molecular target: T2, ERβ LBD (Homo sapiens, UniProt Q92731); assay: DSF on purified ERβ LBD; conditions: compound 500 µM; unliganded Tm ∼51°C
Target sequence in this assay (Q92731 261-530): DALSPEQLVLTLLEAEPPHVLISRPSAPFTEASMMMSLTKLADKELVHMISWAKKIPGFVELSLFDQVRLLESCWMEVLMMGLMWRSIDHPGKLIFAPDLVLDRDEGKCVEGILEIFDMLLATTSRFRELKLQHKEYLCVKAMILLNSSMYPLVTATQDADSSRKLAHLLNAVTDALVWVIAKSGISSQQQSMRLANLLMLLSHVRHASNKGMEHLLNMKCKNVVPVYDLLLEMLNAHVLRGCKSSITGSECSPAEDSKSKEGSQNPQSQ
Description: as §1

ERβ LBD [2] = molecular target: T2, ERβ LBD; assay: Gal4 DBD-ERβ LBD luciferase transactivation assay in HeLa cells; format: cell-based; design: vectors encoding either Gal4 DBD or Gal4 DBD-ERβ LBD fusion; expressed in transfected cells; host or cells: HeLa; conditions: 10 µM, 24 h, alone or in competition with E2 100 nM
Description: For ERβ, transient cotransfections of HeLa cells with vectors encoding either Gal4 DBD or Gal4 DBD-ERβ LBD fusion (gift from Dr. Stefan Andersson, University of Houston, deceased), both at 10 ng/well, constructs for Gal4-E1B promoter linked to a luciferase reporter gene (200 ng/well) and renilla luciferase gene (10 ng/well, internal control) were performed in batches of 10^5 cells seeded into 12-well tissue culture plates. At 24 h after the transfections, cells were treated with either DMSO (0.1%, control) or ccrp1; ccrp2 and ccrp3 at 10 µM, in the presence or absence of estradiol (E2, 100 nM), in the medium containing no fetal bovine serum. Following 24 h incubation, luciferase activities in each well were assessed as described above. Cells transfected with Gal4 DBD vector served as a control for ERβ independent effects.
Target sequence in this assay (Q92731 264-498 limits assumed): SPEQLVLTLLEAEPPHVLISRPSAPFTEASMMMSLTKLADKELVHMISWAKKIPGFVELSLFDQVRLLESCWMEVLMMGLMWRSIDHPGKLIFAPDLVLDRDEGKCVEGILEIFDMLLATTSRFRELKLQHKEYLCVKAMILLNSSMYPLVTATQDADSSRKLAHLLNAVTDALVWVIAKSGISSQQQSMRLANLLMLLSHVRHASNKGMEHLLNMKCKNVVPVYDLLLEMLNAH

TLX LBD = TLX LBD (Homo sapiens, UniProt Q9Y466); assay: Biolayer interferometry (Octet Red 384) direct binding to immobilized TLX LBD; design: cDNA fragments encoding human TLX LBD (a.a. 187–385) were cloned; His6 followed by TEV protease cleavage site (N); made in house; host or cells: E. coli BL21 (DE3) star; conditions: for association/dissociation behaviour (sensorgram): dose-response curves; for maximum binding response (plateau): highest concentrations tested, expected maximum 0.08–0.1 nm for 1:1
Description: Cloning was accomplished with a standard double digest cloning protocol after PCR according to manufacturer’s protocol (Avidity), and the plasmid was sequenced (ACGT, Inc). […] A duplicate set of sensors which serve as reference surfaces were incubated in […] solution of blocked biotinylated Streptavidin protein (Scripps Laboratories) to a loading signal of about 5.5 nm as described by manufacturer’s protocol (FortéBio). Binding of the individual compounds (100 µM) or 1% DMSO (solvent control) was measured over immobilized TLX LBD target biosensors and reference surfaces. Corrected binding response sensorgrams were recorded and analyzed. Data analysis on the FortéBio Octet RED instrument was performed using the FortéBio data analysis software. The analysis accounts for non-specific binding, background, and signal drift and minimizes well based and sensor variability.
The corresponding equilibrium dissociation constants (KD) were determined using steady state analysis of compounds binding affinities, assuming 1∶1 ligand - protein stoichiometry.

Chain of TLX LBD (Q9Y466 187-385): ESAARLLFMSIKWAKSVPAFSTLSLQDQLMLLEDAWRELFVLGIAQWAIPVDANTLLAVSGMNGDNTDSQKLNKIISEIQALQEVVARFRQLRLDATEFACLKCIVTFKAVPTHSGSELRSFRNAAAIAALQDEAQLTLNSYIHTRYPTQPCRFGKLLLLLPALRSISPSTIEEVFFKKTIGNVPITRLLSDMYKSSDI

| SMILES | effect on luciferase activities in absence of TLX (GAL4 DBD vector) | melting temperature shift of LXRβ LBD (human LXRβ LBD) | toxicity (HeLa cells) | melting temperature shift of ERβ LBD (ERβ LBD [1]) | effect on ERβ luciferase activity (ERβ LBD [2]) | association/dissociation behaviour (sensorgram) (TLX LBD) | maximum binding response (plateau) (TLX LBD) |
| --- | --- | --- | --- | --- | --- | --- | --- |
| CC(C)c1c(CN(C)C(C)Cc2ccccc2)n(C)n(-c2ccccc2)c1=O (stereo not drawn) [ccrp1, Famprofazone] | do not affect the luciferase activities | Neither compound demonstrates any significant effect on the melting temperatures | None of the three compounds displayed toxicity | Neither compound demonstrates any significant effect on the melting temperatures | No effect on luciferase activity was detected | quick association and dissociation | 0.04 nm |
| Cc1cc(C(=O)N2CCN(C(c3ccccc3)c3ccccc3)CC2)nn1C [ccrp2, 1-(1,5-dimethylpyrazole-3-carbonyl)-4-(diphenylmethyl)piperazine] | do not affect the luciferase activities | Neither compound demonstrates any significant effect on the melting temperatures | None of the three compounds displayed toxicity | Neither compound demonstrates any significant effect on the melting temperatures | No effect on luciferase activity was detected | quick association and dissociation | 0.06–0.1 nm |
| CC(=O)[C@H]1CC[C@H]2[C@@H]3C=CC4=CC(=O)CC[C@@]4(C)[C@@H]3CC[C@]12C [ccrp3, Dydrogesterone] | do not affect the luciferase activities | Neither compound demonstrates any significant effect on the melting temperatures | None of the three compounds displayed toxicity | Neither compound demonstrates any significant effect on the melting temperatures | No effect on luciferase activity was detected | quick association and dissociation | 0.06–0.1 nm |
